Results reported in PubChem BioAssay AID1963435 (Molecular Pharmacology Branch, DTP, NCI, 2024).

System: PANC-1 complex spheroid growth, percent test/control
Test: Anticancer human tumor PANC-1 cell line growth inhibition [Asc];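 also: spheroids exposed to agents for 7 days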;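 as to viability, T/C: percent viability relative to DMSO vehicle wells taken as 100%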
Conditions: for IC50: curve of first compound; for viability, T/C: stronger effect = lower value
Description: Multicellular complex tumor spheroid response to apoptosis pathway targeting inhibitors Alrizomadlin, Pelcitoclax, and Dasminapant in combination with a variety of drugs and investigational agents in selected tumor cell lines
The MDM2 inhibitor alrizomadlin, the Bcl-2/Bcl-xL inhibitor pelcitoclax, and the IAPs inhibitor dasminapant were evaluated both individually and in combination with standard of care and investigational anticancer small molecules within a complex spheroid model of solid tumors. . Complex spheroids include a stromal component modeled by human endothelial cells (HUVEC) and fibroblasts modeled by human mesenchymal stem cells (MSCs). The concentration ranges selected for each drug and investigational agent were based upon clinically achievable concentrations if the clinical Cmax of the agent was known.
Compounds. The drugs and investigational agents: alrizomadlin (APG-115; NSC831270), pelcitoclax (APG-1252; NSC835773), dasminapant (APG-1387;NSC834197), TAK-243 (NSC785004), copanlisib (NSC809693), olaparib (NSC753686), talazoparib (NSC767125), cobimetinib (NSC 768068), eltanexor (KPT-8602, NSC 794443), abemaciclib (NSC 768073), sotorasib (NSC818433), adagrasib (NSC 831453), MRTX-1133 (NSC 836407), Iadademestat (ORY1001, NSC 806812), and RMC-4630 (NSC839698), were obtained from the NCI Developmental Therapeutics Program Chemical Repository. The FDA-approved anticancer drug set is available from the Developmental Therapeutics Program at https://dtp.cancer.gov/organization/dscb/obtaining/available plates.htm. […] The stock solutions were prepared in dimethyl sulfoxide (DMSO, Sigma-Aldrich, St. Louis, MO, cat. D2650) at 800-fold the tested concentration and stored at -70 degrees C prior to their use. All drugs and investigational agents were tested over a range starting from a high concentration at or near the clinical Cmax and decreasing in half-log increments. If the clinical Cmax for an agent had not been determined, the highest concentration tested was 10 microM.
The patient-derived cancer (PDC) cell lines include five colon adenocarcinomas: 186277-243-T-J2-PDC, 616215-338-R-J1-PDC, 439559-082-T-J2-PDC, 463943-066-T-J2-PDC, and 519858-162-T-J1-PDC; three pancreatic carcinomas: 323965-272-R-J2-PDC, 521955-158-R6-J3-PDC, and 521955-158-R2-J5-PDC; two uterine sarcomas: 327498-152-R-J2-PDC and 993429-296-R-J1-PDC; two rhabdomyosarcomas: 755483-174-R-J1-PDC and 772245-204-R-J1-PDC; two soft tissue sarcomas: 126254-015-R-J1-PDC and 494315-158-R-J1-PDC; two malignant fibrous histiocytomas: 317291-083-R-J1-PDC and 596521-263-R-J1-PDC; two breast carcinomas: 171881-019-R-J1-PDC and 885512-296-R-J2-PDC; and one ovarian carcinoma: 6556581-035-R-J-PDC were obtained from the NCI PDMR, (https://pdmr.cancer.gov). The established cell lines HSSY-2 synovial sarcoma (RRID:CVCL 8719), SYO-1 synovial sarcoma (RRID:CVCL_7146), MPNST malignant peripheral neural sheath tumor were obtained from the Sloan Kettering Institute. The following established cell lines were purchased from the American Type Culture Collection (ATCC, Manassas, VA), Sor the received from the NCI repository:, PANC-1 pancreatic carcinoma (CRL-1469, RRID:CVCL_0480), OVCAR-5 ovarian carcinoma (RRID:CVCL_1628), OVCAR-8 ovarian carcinoma (RRID:CVCL_1629), , MCF-7 breast carcinoma (CRL-12584, RRID:CVCL_0031), MDA-MB-231 breast carcinoma (CRL-12532, RRID:CVCL_0062), NCI-H1876 small cell lung carcinoma (CRL-5902, RRID:CVCL_1503), NCI-H510A small cell lung carcinoma (HTB-184, RRID:CVCL_1565), NCI-H1417 (CRL-5869, RRID:CVCL_1469), and NCI-H196 small cell lung carcinoma (CRL-5823, RRID:CVCL_1509). Dr. Peter Houghton (Greehey Children's Cancer Research Institute, University of Texas Health Science Center, San Antonio, TX) provided Rh-18 rhabdomyosarcoma (RRID:CVCL_1659). Pooled donor human umbilical vein endothelial cells (HUVEC, Lonza, cat. CC-2519) and human mesenchymal stem cells (hMSC, Lonza, cat. PT-2501) were purchased from Lonza (Walkersville, MD).
Cell Culture. […]

## NC1CCC(NC2CC2c2ccccc2)CC1 (configuration not stated) + CCN1C(C(=O)NC23CCC(C(=O)O)(CC2)CC3)C(c2cccc(Cl)c2F)C2(C(=O)Nc3cc(Cl)ccc32)C12CCCCC2
Second compound 0.00949 µM
  IC50: > 100 nM
Second compound 0.03 µM
  IC50: > 100 nM
Second compound 0.0949 µM
  IC50: > 100 nM
Second compound 0.3 µM
  IC50: > 100 nM
Second compound 0.949 µM
  IC50: > 100 nM
Second compound 3 µM
  IC50: > 100 nM
Second compound 0.00949 µM, first compound 0.000316 µM
  viability, T/C: 97.6%
Second compound 0.00949 µM, first compound 0.001 µM
  viability, T/C: 89%
Second compound 0.00949 µM, first compound 0.00316 µM
  viability, T/C: 97.2%
Second compound 0.00949 µM, first compound 0.01 µM
  viability, T/C: 85.9%
Second compound 0.00949 µM, first compound 0.0316 µM
  viability, T/C: 82%
Second compound 0.00949 µM, first compound 0.1 µM
  viability, T/C: 104%
Second compound 0.03 µM, first compound 0.000316 µM
  viability, T/C: 84.6%
Second compound 0.03 µM, first compound 0.001 µM
  viability, T/C: 90.1%
Second compound 0.03 µM, first compound 0.00316 µM
  viability, T/C: 103%
Second compound 0.03 µM, first compound 0.01 µM
  viability, T/C: 87%
Second compound 0.03 µM, first compound 0.0316 µM
  viability, T/C: 91.2%
Second compound 0.03 µM, first compound 0.1 µM
  viability, T/C: 90.1%
Second compound 0.0949 µM, first compound 0.000316 µM
  viability, T/C: 99.7%
Second compound 0.0949 µM, first compound 0.001 µM
  viability, T/C: 94.7%
Second compound 0.0949 µM, first compound 0.00316 µM
  viability, T/C: 93.5%
Second compound 0.0949 µM, first compound 0.01 µM
  viability, T/C: 95.5%
Second compound 0.0949 µM, first compound 0.0316 µM
  viability, T/C: 97.7%
Second compound 0.0949 µM, first compound 0.1 µM
  viability, T/C: 95.4%
Second compound 0.3 µM, first compound 0.000316 µM
  viability, T/C: 96.7%
Second compound 0.3 µM, first compound 0.001 µM
  viability, T/C: 101%
Second compound 0.3 µM, first compound 0.00316 µM
  viability, T/C: 102%
Second compound 0.3 µM, first compound 0.01 µM
  viability, T/C: 98.2%
Second compound 0.3 µM, first compound 0.0316 µM
  viability, T/C: 102%
Second compound 0.3 µM, first compound 0.1 µM
  viability, T/C: 91%
Second compound 0.949 µM, first compound 0.000316 µM
  viability, T/C: 109%
Second compound 0.949 µM, first compound 0.001 µM
  viability, T/C: 115%
Second compound 0.949 µM, first compound 0.00316 µM
  viability, T/C: 104%
Second compound 0.949 µM, first compound 0.01 µM
  viability, T/C: 107%
Second compound 0.949 µM, first compound 0.0316 µM
  viability, T/C: 97.2%
Second compound 0.949 µM, first compound 0.1 µM
  viability, T/C: 89.2%
Second compound 3 µM, first compound 0.000316 µM
  viability, T/C: 109%
Second compound 3 µM, first compound 0.001 µM
  viability, T/C: 112%
Second compound 3 µM, first compound 0.00316 µM
  viability, T/C: 101%
Second compound 3 µM, first compound 0.01 µM
  viability, T/C: 110%
Second compound 3 µM, first compound 0.0316 µM
  viability, T/C: 95.6%
Second compound 3 µM, first compound 0.1 µM
  viability, T/C: 110%
